Tested on: endothelial dysfunction induced by DENV NS1 in HPMEC monolayers
Experiment: Effect of cyclodextrins on endothelial dysfunction induced by DENV NS1 (TEER of HPMEC monolayers in transwells)
Assay type: cell-based, human
Settings: DENV NS1 at 10 micrograms/mL, TEER 2 to 10 hours post-treatment, AUC vs DENV NS1-only control
Method: The present invention is based on the evaluation of the in vitro efficacy against DENV NS1-mediated pathogenesis of a series of different CDs that display variable cavity sizes as well as different degrees and types of substitution. In an in vitro model of endothelial permeability, CDs, at concentrations with no anticoagulant effects, were added to human pulmonary microvascular endothelial cells (HPMECs) treated with DENV NS1 to induce endothelial hyperpermeability.
Endothelial disruption (hyperpermeability) was quantified by measuring transendothelial electrical resistance (TEER). […] Sulfate group substitution of cyclodextrins contributed to the anti-leak activity.
The method is suitable to study the effect of NS1 from DENV from all serotypes and NS1 from other flaviviruses. HPMEC monolayers (6×10^4 cells/transwell) cultured in transwell inserts for three days were treated with the CD compounds then treated or not with DENV NS1 at 10 micrograms/mL. Recombinant NS1 protein from DENV (Strain 16681) weas certified to be endotoxin-free and >95% purity (Native Antigen, United Kingdom). TEER was measured from 2 to 10 hours post-treatment. The area under the curve of the different treatments+DENV NS1 was compared by one-way ANOVA plus Dunnett's test to the DENV NS1-only control.
Randomly substituted alpha-cyclodextrin sulfate sodium salt (average degree of substitution: ˜12) was used as specified according to Example 1. […] A) HPMEC monolayers (6×10e4 cells/transwell) cultured in transwell inserts for three days were treated with the compounds in the presence or absence of DENV NS1 at 10 ug/mL. TEER was measured from 2 to 10 hours post-treatment. Relative TEER was calculated as the ratio between resistance values obtained in the different treatments and medium-only controls. B) Area under the curve of the different treatments was compared by one-way ANOVA plus Dunnett's test to the DENV NS1control. P-values are summarized with number of asterisks as follows: *p≤0.05, **p≤0.01, ***p≤0.001, ****p≤0.0001. The effective dose of cyclodextrin for hindering endothelial leakage was 10 micrograms/mL.

| Substance | effective dose of cyclodextrin for hindering endothelial leakage / hyperpermeability [micrograms/mL] |
| --- | --- |
| 2,3-dimethyl-6-sulfate-gamma cyclodextrin sodium salt | 100 |
| 2-hydroxypropyl-gamma-cyclodextrin | 1000 |
| sulfopropylether beta cyclodextrin sodium salt | 1000 |
| 2,3-di-OH-6-sulfo-gamma cyclodextrin sodium salt | 10 |
| sulfobutlyether beta cyclodextrin sodium salt | 100 |
| 2,3-dimethyl-6-sulfate-alpha cyclodextrin sodium salt | 250 |
| 2,3-dimethyl-6-sulfate-beta cyclodextrin sodium salt | 100 |
| alpha-cyclodextrin sulfate sodium salt | 10 |
| sulfopropylether gamma cyclodextrin sodium salt | 1000 |
| sulfopropylether alpha cyclodextrin sodium salt | 1000 |
| gamma cyclodextrin sulfate sodium salt | 10 |
| beta cyclodextrin sulfate sodium salt | 10 |
| 2-hydroxypropyl-beta-cyclodextrin [reference compound] | 1000 |
